What was measured:
Experiment in all cases: Mammalian 2-hybrid assay (VDR-coregulator interaction, HepG2)
Assay type in all cases: cell-based
Settings in all cases: 100 μM LCA
[1] = target: T1, Medaka VDRβ (Oryzias latipes, UniProt B2CCA1)
T1 sequence (B2CCA1 1-425): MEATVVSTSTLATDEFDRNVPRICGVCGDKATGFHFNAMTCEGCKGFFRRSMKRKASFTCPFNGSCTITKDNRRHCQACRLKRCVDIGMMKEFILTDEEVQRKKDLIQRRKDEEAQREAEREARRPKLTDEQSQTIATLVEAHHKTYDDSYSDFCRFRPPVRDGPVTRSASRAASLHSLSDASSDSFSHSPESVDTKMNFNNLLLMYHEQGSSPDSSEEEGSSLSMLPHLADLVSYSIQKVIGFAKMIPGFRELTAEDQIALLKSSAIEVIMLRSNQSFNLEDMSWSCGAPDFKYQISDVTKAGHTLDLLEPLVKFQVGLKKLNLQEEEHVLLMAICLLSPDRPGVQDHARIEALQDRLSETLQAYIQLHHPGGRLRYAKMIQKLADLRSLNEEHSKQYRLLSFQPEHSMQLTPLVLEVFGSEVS
T1 sequence (P19793 1-462 partner): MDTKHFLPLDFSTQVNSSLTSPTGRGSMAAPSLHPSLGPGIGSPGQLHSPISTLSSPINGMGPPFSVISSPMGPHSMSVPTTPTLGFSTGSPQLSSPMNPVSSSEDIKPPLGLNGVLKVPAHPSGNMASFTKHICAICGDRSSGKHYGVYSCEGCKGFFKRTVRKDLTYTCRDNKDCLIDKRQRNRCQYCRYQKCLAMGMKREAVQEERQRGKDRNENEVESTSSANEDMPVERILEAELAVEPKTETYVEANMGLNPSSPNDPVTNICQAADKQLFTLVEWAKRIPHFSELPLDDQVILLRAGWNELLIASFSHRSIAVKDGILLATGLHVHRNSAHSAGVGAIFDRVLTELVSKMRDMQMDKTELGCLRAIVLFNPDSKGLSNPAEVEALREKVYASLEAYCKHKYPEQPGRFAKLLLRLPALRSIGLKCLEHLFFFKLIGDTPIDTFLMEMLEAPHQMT
Source text: (§1) Prey constructs included full-length VDRs fused to the herpes simplex VP16 activation domain (pVP16-VDR). Bait constructs consisted of either full-length wild-type human RXR (pM-RXRWT), a truncated human RXR mutant (pM-RXRAF2), or the defined NR box of each member of the SRC/p160 family (pM-SRC1_241-386, pM-GRIP1_479-767, or pM-ACTR392-1005) fused to the yeast Gal4 DNA-binding domain. Reporters included the Gal4 luciferase reporter (5xGal4-TATA-Luc) and pRL-CMV as an internal luciferase control.
(§2) HepG2 cells were seeded into 96-well tissue culture plates as described above and transfected with Lipofectamine 2000 the following day. Each well received 33.6 ng pVP16-VDR, 33.6 ng pM-coregulator (where indicated), 126.6 ng 5XGal4-TATA-Luc, and 3 ng pRL-CMV. […] Positive controls were treated with 1,25D3 and vehicle controls were treated with ethanol. Luciferase activity was measured 24 hours post-exposure using the Dual-Glo Luciferase Assay System described above. Raw luciferase data were normalized to the pRL-CMV luciferase control. VDR-coregulator response was normalized to the pVP16-VDR in the absence of bait constructs. Results were analyzed using a two-way ANOVA followed by Bonferroni’s multiple comparisons test in Prism (GraphPad Inc, San Diego, CA). All experiments were replicated 3 times and conducted as groups of 4 replicate wells.

[2] = target: Medaka VDRα (Oryzias latipes, UniProt B2CCA0)
Source text: as §1, §2

[3] = target: T2, Skate VDR (Leucoraja erinacea, UniProt A0A088GDQ7)
T2 sequence (A0A088GDQ7 1-434): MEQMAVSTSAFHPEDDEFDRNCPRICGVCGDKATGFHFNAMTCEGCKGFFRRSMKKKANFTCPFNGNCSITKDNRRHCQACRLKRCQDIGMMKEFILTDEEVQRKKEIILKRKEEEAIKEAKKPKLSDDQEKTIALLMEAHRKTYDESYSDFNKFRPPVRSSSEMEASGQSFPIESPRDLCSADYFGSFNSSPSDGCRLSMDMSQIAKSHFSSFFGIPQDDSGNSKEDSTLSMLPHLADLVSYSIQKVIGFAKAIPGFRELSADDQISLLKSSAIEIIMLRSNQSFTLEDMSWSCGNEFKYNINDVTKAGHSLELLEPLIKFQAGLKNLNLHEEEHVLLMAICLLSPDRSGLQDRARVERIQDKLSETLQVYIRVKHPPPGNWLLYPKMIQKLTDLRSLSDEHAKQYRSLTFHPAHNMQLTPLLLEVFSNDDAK
T2 sequence (P19793 1-462 partner): T1 sequence (P19793 1-462 partner)
Source text: as §1, §2

[4] = target: T3, Human VDR (Homo sapiens, UniProt P11473)
T3 sequence (P11473 1-427): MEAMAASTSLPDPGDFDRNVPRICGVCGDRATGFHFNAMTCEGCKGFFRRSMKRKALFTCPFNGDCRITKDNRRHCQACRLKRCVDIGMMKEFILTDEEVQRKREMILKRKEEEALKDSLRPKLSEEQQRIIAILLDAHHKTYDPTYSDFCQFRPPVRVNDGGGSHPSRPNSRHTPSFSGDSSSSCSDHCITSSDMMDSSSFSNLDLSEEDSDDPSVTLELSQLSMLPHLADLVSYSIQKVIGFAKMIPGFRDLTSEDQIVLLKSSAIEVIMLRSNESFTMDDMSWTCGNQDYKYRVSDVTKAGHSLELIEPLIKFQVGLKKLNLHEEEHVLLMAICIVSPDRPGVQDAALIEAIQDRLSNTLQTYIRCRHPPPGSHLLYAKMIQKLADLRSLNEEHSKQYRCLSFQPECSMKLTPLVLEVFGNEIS
Source text: as §1, §2

Sequence of Medaka VDRα (B2CCA0 entry or part of it, one chain of several): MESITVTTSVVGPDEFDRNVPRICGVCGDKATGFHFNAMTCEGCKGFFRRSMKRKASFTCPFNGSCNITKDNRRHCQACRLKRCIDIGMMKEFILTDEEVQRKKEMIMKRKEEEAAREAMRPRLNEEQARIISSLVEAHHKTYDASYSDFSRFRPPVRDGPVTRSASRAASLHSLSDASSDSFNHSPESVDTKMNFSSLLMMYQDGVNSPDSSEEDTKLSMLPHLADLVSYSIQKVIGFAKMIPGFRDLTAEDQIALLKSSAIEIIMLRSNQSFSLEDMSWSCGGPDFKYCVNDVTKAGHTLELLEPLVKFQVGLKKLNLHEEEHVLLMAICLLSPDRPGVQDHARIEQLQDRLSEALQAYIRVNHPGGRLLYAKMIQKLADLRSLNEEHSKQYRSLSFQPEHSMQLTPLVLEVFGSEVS

Question: For `C[C@H](CCC(=O)O)[C@H]1CC[C@H]2[C@@H]3CC[C@@H]4C[C@H](O)CC[C@]4(C)[C@H]3CC[C@]12C` [LCA, 5β-cholanic acid-3α-ol], which “VDR-RXRWT interaction (heterodimerization)” value (from here on “VDR-RXRWT interaction”) ([1]; bait human RXRWT) is on record?
Answer: The value was “Robust and significant VDR-RXRWT interactions”.

Question: What about the VDR-SRC1 interaction ([1]; cotransfection of RXRWT) of the same compound?
Answer: The VDR-SRC1 interaction was “strong VDR-SRC1 interactions”.

Question: And the “VDR-RXRWT interaction” value ([2]; bait human RXRWT)?
Answer: The value was “Robust and significant VDR-RXRWT interactions”.

Question: And the VDR-SRC1 interaction ([2]; cotransfection of RXRWT)?
Answer: Its VDR-SRC1 interaction is “strong VDR-SRC1 interactions”.

Question: What about the VDR-SRC/p160 coactivator interaction ([3]; any of the SRC/p160 coactivators) of the same compound?
Answer: The VDR-SRC/p160 coactivator interaction was “No protein-protein interaction was observed”.

Question: And the “VDR-RXRWT interaction” value ([3]; bait human RXRWT, presence and absence of SRC1)?
Answer: Its value is “not observed”.

Question: And the VDR-SRC1 interaction ([4]; absence of cotransfected RXRWT)?
Answer: The VDR-SRC1 interaction was “successfully recruited SRC1”.

Question: And the “VDR-RXRWT interaction” value ([4]; bait human RXRWT)?
Answer: The value was “Robust and significant VDR-RXRWT interactions”.

Question: And the VDR-SRC1 interaction ([4]; cotransfection of RXRWT)?
Answer: The VDR-SRC1 interaction was “strong VDR-SRC1 interactions”.
